Here are results for 15 molecules from ChEMBL document CHEMBL1795236, “Design and synthesis of protein-protein interaction mimics as Plasmodium falciparum cysteine protease, falcipain-2 inhibitors” (Eur J Med Chem, 2011).

Active and inactive are the calls of the source. The rule behind the calls is not given here. Peptide text beside a SMILES is read from it.

Experiment [1] deals with Plasmodium falciparum. Nature of the experiment: (§1) Inhibition of Plasmodium falciparum recombinant refolded falcipain 2 activity using ZFR-AMC as a substrate after 30 mins by fluorimetric assay.
Experiment [2] concerns Plasmodium falciparum. The experiment is described as follows: Inhibition of Plasmodium falciparum recombinant falcipain 2 using fluorogenic ZFR-AMC substrate at 5 uM after 30 mins by fluorimetric assay.
The nature of experiment [3]: as §1.
Experiment [4] relates to Plasmodium falciparum. The experiment is described as follows: Antimalarial activity against Plasmodium falciparum infected in human RBC assessed as swollen food vacuole at early trophozoite stage at 200 nM after 48 hrs by Giemsa staining based microscopy. In kind it is functional, organism-based.
Experiment [5] has as its system Plasmodium falciparum. Nature of the experiment: Antimalarial activity against Plasmodium falciparum infected in human RBC assessed as clumps of malarial pigment at 200 nM after 48 hrs by Giemsa staining based microscopy. In kind it is functional, organism-based.
In experiment [6] the test system is Plasmodium falciparum. Nature of the experiment: Antimalarial activity against Plasmodium falciparum infected in human RBC assessed as abnormal schizonts at 200 nM after 48 hrs by Giemsa staining based microscopy. The class given is functional, organism-based.

On to `CC(=O)N[C@@H](CC(C)C)C(=O)N[C@@H](CC(C)C)C(=O)N[C@H](C=O)CCCNC(=N)N`, for which the inhibition result in the experiment with Plasmodium falciparum [1] was “Active”.

In the case of `CC(C)C[C@H](NC(=O)[C@H]1O[C@@H]1C(=O)O)C(=O)NCCCCN=C(N)N`, the inhibition entry in the experiment with Plasmodium falciparum [1] was “Active”.

On to `CC[C@H](C)[C@H](NC(=O)CNC(=O)[C@H](CO)NC(=O)[C@@H](NC(=O)[C@H](CC(C)C)NC(=O)[C@@H]1CSSC[C@H](NC(=O)[C@H](C)NC(=O)CNC(=O)[C@H](CC(C)C)NC(=O)[C@H](CC(C)C)NC(=O)[C@@H](N)CCCNC(=N)N)C(=O)NCCCC(=O)N1)C(C)C)C(N)=O` (HELM PEPTIDE1{R.L.L.G.A.C.[O=C(CCCN[*:1])[*:2]].C.L.V.S.G.I.[am]}$PEPTIDE1,PEPTIDE1,6:R3-8:R3$$$V2.0), for which, in the experiment with Plasmodium falciparum [2], the inhibition was 39%.

In the case of `CC[C@H](C)[C@H](NC(=O)CNC(=O)[C@H](CO)NC(=O)[C@@H](NC(=O)[C@H](CC(C)C)NC(=O)[C@H](CCC(N)=O)NC(=O)[C@@H]1CSSC[C@H](NC(=O)[C@@H]2CCCN2C(=O)[C@H](C)NC(=O)CNC(=O)[C@H](CC(C)C)NC(=O)[C@H](CC(C)C)NC(=O)[C@@H](N)CCCNC(=N)N)C(=O)NCCCC(=O)N1)C(C)C)C(N)=O` (HELM PEPTIDE1{R.L.L.G.A.P.C.[O=C(CCCN[*:1])[*:2]].C.Q.L.V.S.G.I.[am]}$PEPTIDE1,PEPTIDE1,7:R3-9:R3$$$V2.0), in the experiment on Plasmodium falciparum [2], the inhibition was 39%.

Regarding `CC[C@H](C)[C@H](NC(=O)CNC(=O)[C@H](CO)NC(=O)[C@@H](NC(=O)[C@H](CC(C)C)NC(=O)[C@H](CCC(N)=O)NC(=O)[C@@H]1CSSC[C@H](NC(=O)[C@@H]2CCCN2C(=O)[C@H](C)NC(=O)CNC(=O)[C@H](CC(C)C)NC(=O)[C@H](CC(C)C)NC(=O)[C@@H](N)CCCNC(=N)N)C(=O)NCCCC(=O)N1)C(C)C)C(=O)NCCC(=O)NCCC(=O)N1CCC[C@H]1C(=O)N[C@@H](Cc1c[nH]c2ccccc12)C(N)=O` (HELM PEPTIDE1{R.L.L.G.A.P.C.[O=C(CCCN[*:1])[*:2]].C.Q.L.V.S.G.I.[bAla].[bAla].P.W.[am]}$PEPTIDE1,PEPTIDE1,7:R3-9:R3$$$V2.0), the inhibition in the experiment with Plasmodium falciparum [2] was 39%.

As for `CC[C@H](C)[C@H](NC(=O)CNC(=O)[C@H](CO)NC(=O)[C@@H](NC(=O)[C@H](CC(C)C)NC(=O)[C@H](CCC(N)=O)NC(=O)[C@H](CCCNC(=N)N)NC(=O)CCCNC(=O)[C@@H](NC(=O)[C@@H]1CCCN1C(=O)[C@H](C)NC(=O)CNC(=O)[C@H](CC(C)C)NC(=O)[C@H](CC(C)C)NC(=O)[C@@H](N)CCCNC(=N)N)C(C)C)C(C)C)C(N)=O` (HELM PEPTIDE1{R.L.L.G.A.P.V.[O=C(CCCN[*:1])[*:2]].R.Q.L.V.S.G.I.[am]}$$$$V2.0), the Ki in experiment [3] came out at 2500 nM. In addition, the inhibition in the experiment on Plasmodium falciparum [2] was 57%. Besides, the result with Plasmodium falciparum [4], in the experiment on Plasmodium falciparum [5] and in the experiment with Plasmodium falciparum [6] was Active.

Regarding `CC[C@H](C)[C@H](NC(=O)CNC(=O)[C@H](CO)NC(=O)[C@@H](NC(=O)[C@H](CC(C)C)NC(=O)[C@H](CCC(N)=O)NC(=O)[C@H](CCCNC(=N)N)NC(=O)CCCNC(=O)[C@@H](NC(=O)[C@@H]1CCCN1C(=O)[C@H](C)NC(=O)CNC(=O)[C@H](CC(C)C)NC(=O)[C@H](CC(C)C)NC(=O)[C@@H](N)CCCNC(=N)N)C(C)C)C(C)C)C(=O)NCCC(=O)NCCC(=O)N1CCC[C@H]1C(=O)N[C@@H](Cc1c[nH]c2ccccc12)C(N)=O` (HELM PEPTIDE1{R.L.L.G.A.P.V.[O=C(CCCN[*:1])[*:2]].R.Q.L.V.S.G.I.[bAla].[bAla].P.W.[am]}$$$$V2.0), the inhibition in the experiment with Plasmodium falciparum [2] was 49%. The result in the experiment on Plasmodium falciparum [4], in the experiment on Plasmodium falciparum [5] and in the experiment with Plasmodium falciparum [6] was Active.

With `CC[C@H](C)[C@H](NC(=O)CNC(=O)[C@H](CO)NC(=O)[C@@H](NC(=O)[C@H](CC(C)C)NC(=O)[C@H](CCC(N)=O)NC(=O)[C@H](CCCNC(=N)N)NC(=O)[C@H]1CC[C@@H](NC(=O)[C@@H](NC(=O)[C@@H]2CCCN2C(=O)[C@H](C)NC(=O)CNC(=O)[C@H](CC(C)C)NC(=O)[C@H](CC(C)C)NC(=O)[C@@H](N)CCCNC(=N)N)C(C)C)CC1)C(C)C)C(N)=O` (HELM PEPTIDE1{R.L.L.G.A.P.V.[O=C([C@H]1CC[C@@H](N[*:1])CC1)[*:2]].R.Q.L.V.S.G.I.[am]}$$$$V2.0), in experiment [3], the Ki is 2000 nM. In addition, in the experiment on Plasmodium falciparum [2], the inhibition turned out to be 63%. For the same molecule, the outcome in the experiment on Plasmodium falciparum [4], with Plasmodium falciparum [5] and with Plasmodium falciparum [6] was Active.

Consider `CC[C@H](C)[C@H](NC(=O)CNC(=O)[C@H](CO)NC(=O)[C@@H](NC(=O)[C@H](CC(C)C)NC(=O)[C@H](CCC(N)=O)NC(=O)[C@H](CCCNC(=N)N)NC(=O)[C@H]1CC[C@@H](NC(=O)[C@@H](NC(=O)[C@@H]2CCCN2C(=O)[C@H](C)NC(=O)CNC(=O)[C@H](CC(C)C)NC(=O)[C@H](CC(C)C)NC(=O)[C@@H](N)CCCNC(=N)N)C(C)C)CC1)C(C)C)C(=O)NCCC(=O)NCCC(=O)N1CCC[C@H]1C(=O)N[C@@H](Cc1c[nH]c2ccccc12)C(N)=O` (HELM PEPTIDE1{R.L.L.G.A.P.V.[O=C([C@H]1CC[C@@H](N[*:1])CC1)[*:2]].R.Q.L.V.S.G.I.[bAla].[bAla].P.W.[am]}$$$$V2.0), for which, in experiment [3], the inhibitory constant (Ki) came out at 2500 nM. The inhibition in the experiment on Plasmodium falciparum [2] was 60%. Also, the outcome in the experiment with Plasmodium falciparum [4], with Plasmodium falciparum [5] and in the experiment with Plasmodium falciparum [6] was Active.

As to `CC[C@H](C)[C@H](NC(=O)CNC(=O)[C@H](CO)NC(=O)[C@@H](NC(=O)[C@H](CC(C)C)NC(=O)[C@H](CCC(N)=O)NC(=O)CCCNC(=O)[C@@H]1CCCN1C(=O)[C@H](C)NC(=O)CNC(=O)[C@H](CC(C)C)NC(=O)[C@H](CC(C)C)NC(=O)[C@@H](N)CCCNC(=N)N)C(C)C)C(N)=O` (HELM PEPTIDE1{R.L.L.G.A.P.[O=C(CCCN[*:1])[*:2]].Q.L.V.S.G.I.[am]}$$$$V2.0), the inhibition in the experiment on Plasmodium falciparum [2] came to 44%. Moreover, the outcome in the experiment with Plasmodium falciparum [4], in the experiment on Plasmodium falciparum [5] and in the experiment with Plasmodium falciparum [6] was Active.

Take `CC[C@H](C)[C@H](NC(=O)CNC(=O)[C@H](CO)NC(=O)[C@@H](NC(=O)[C@H](CC(C)C)NC(=O)[C@H](CCC(N)=O)NC(=O)CCCNC(=O)[C@@H]1CCCN1C(=O)[C@H](C)NC(=O)CNC(=O)[C@H](CC(C)C)NC(=O)[C@H](CC(C)C)NC(=O)[C@@H](N)CCCNC(=N)N)C(C)C)C(=O)NCCC(=O)NCCC(=O)N1CCC[C@H]1C(=O)N[C@@H](Cc1c[nH]c2ccccc12)C(N)=O` (HELM PEPTIDE1{R.L.L.G.A.P.[O=C(CCCN[*:1])[*:2]].Q.L.V.S.G.I.[bAla].[bAla].P.W.[am]}$$$$V2.0): the inhibition in the experiment with Plasmodium falciparum [2] worked out at 32%.

For `CC[C@H](C)[C@H](NC(=O)CNC(=O)[C@H](CO)NC(=O)[C@@H](NC(=O)[C@H](CC(C)C)NC(=O)[C@H](CCC(N)=O)NC(=O)[C@H]1CC[C@@H](NC(=O)[C@@H]2CCCN2C(=O)[C@H](C)NC(=O)CNC(=O)[C@H](CC(C)C)NC(=O)[C@H](CC(C)C)NC(=O)[C@@H](N)CCCNC(=N)N)CC1)C(C)C)C(N)=O` (HELM PEPTIDE1{R.L.L.G.A.P.[O=C([C@H]1CC[C@@H](N[*:1])CC1)[*:2]].Q.L.V.S.G.I.[am]}$$$$V2.0), in the experiment with Plasmodium falciparum [2], the inhibition came to 50%. In addition, the result in the experiment with Plasmodium falciparum [4], in the experiment with Plasmodium falciparum [5] and with Plasmodium falciparum [6] was Active.

For `CC[C@H](C)[C@H](NC(=O)CNC(=O)[C@H](CO)NC(=O)[C@@H](NC(=O)[C@H](CC(C)C)NC(=O)[C@H](CCC(N)=O)NC(=O)[C@H]1CC[C@@H](NC(=O)[C@@H]2CCCN2C(=O)[C@H](C)NC(=O)CNC(=O)[C@H](CC(C)C)NC(=O)[C@H](CC(C)C)NC(=O)[C@@H](N)CCCNC(=N)N)CC1)C(C)C)C(=O)NCCC(=O)NCCC(=O)N1CCC[C@H]1C(=O)N[C@@H](Cc1c[nH]c2ccccc12)C(N)=O` (HELM PEPTIDE1{R.L.L.G.A.P.[O=C([C@H]1CC[C@@H](N[*:1])CC1)[*:2]].Q.L.V.S.G.I.[bAla].[bAla].P.W.[am]}$$$$V2.0), in the experiment on Plasmodium falciparum [2], the inhibition worked out at 57%. Moreover, the outcome with Plasmodium falciparum [4], with Plasmodium falciparum [5] and in the experiment on Plasmodium falciparum [6] was Active.

Take Ac-RQLVSGI-NH2: in the experiment with Plasmodium falciparum [2], the inhibition turned out to be 10%.

Turning to H-RLLGAPV-NH2, the inhibition in the experiment with Plasmodium falciparum [2] was determined as 5%. Also, the outcome in the experiment on Plasmodium falciparum [4], in the experiment on Plasmodium falciparum [5] and in the experiment on Plasmodium falciparum [6] was Active.
